Test results published in patent publication US7553618B2, “Method for determining human immunodeficiciency virus type 1 (HIV-1) hypersusceptibility to the protease inhibitor amprenavir” (Monogram Biosciences, Inc., priority 2002, dated 2009).

Tested on: HIV-1 from patient plasma samples
Test: PHENOSENSE HIV phenotypic susceptibility assay, fold change in IC50 of patient virus versus NL4-3 reference virus
Type: cell-based
Details: Patient IC50/reference (NL4-3) IC50; for Fold change (FC) in IC50, 10th percentile: 10th percentile of distribution over 1515 patient samples, hypersusceptibility cut-off; for Fold change (FC) in IC50, 90th percentile: 90th percentile of distribution over 1515 patient samples; for Fold change (FC) in IC50, mean: mean over 1515 patient samples without resistance-selected mutations; for Fold change (FC) in IC50, median: median over 1515 patient samples without resistance-selected mutations
Description: In a preferred embodiment, the phenotypic analysis is performed using PHENOSENSE™ (ViroLogic Inc., South San Francisco, Calif.). See Petropoulos et al., 2000, Antimicrob. Agents Chemother. 44:920-928; U.S. Pat. Nos. 5,837,464 and 6,242,187. PHENOSENSE™ is a phenotypic assay that achieves the benefits of phenotypic testing and overcomes the drawbacks of previous assays. Because the assay has been automated, PHENOSENSE™ offers higher throughput under controlled conditions. The result is an assay that accurately defines the susceptibility profile of a patient's HIV isolates to all currently available antiretroviral drugs, and delivers results directly to the physician within about 10 to about 15 days of sample receipt. PHENOSENSE™ is accurate and can obtain results with only one round of viral replication, thereby avoiding selection of subpopulations of virus. The results are quantitative, measuring varying degrees of drug susceptibility, and sensitive—the test can be performed on blood specimens with a viral load of about 500 copies/mL and can detect minority populations of some drug-resistant virus at concentrations of 10% or less of total viral population. Furthermore, the results are reproducible and can vary by less than about 1.4-2.5 fold, depending on the drug, in about 95% of the assays performed.
A resistance test vector (“RTV”) can then be constructed by incorporating the amplified viral gene sequences into a replication defective viral vector by using any method known in the art of incorporating gene sequences into a vector. In one embodiment, restrictions enzymes and conventional cloning methods are used. See Sambrook et al., 2001, Molecular Cloning: A Laboratory Manual, Cold Spring Harbor Laboratory, 3rd ed., NY; and Ausubel et al., 1989, Current Protocols in Molecular Biology, Greene Publishing Associates and Wiley Interscience, NY. In a preferred embodiment, ApaI and PinAI restriction enzymes are used. Preferably, the replication defective viral vector is the indicator gene viral vector (“IGVV”). In a preferred embodiment, the viral vector contains a means for detecting replication of the RTV. Preferably, the viral vector contains a luciferase expression cassette.
The assay can be performed by first co-transfecting host cells with RTV DNA and a plasmid that expresses the envelope proteins of another retrovirus, for example, amphotropic murine leukemia virus (MLV). Following transfection, virus particles can be harvested and used to infect fresh target cells. The completion of a single round of viral replication can be detected by the means for detecting replication contained in the vector. In a preferred embodiment, the completion of a single round of viral replication results in the production of luciferase. Serial concentrations of anti-viral agents can be added at either the transfection step or the infection step.
Susceptibility to the anti-viral agent can be measured by comparing the replication of the vector in the presence and absence of the anti-viral agent. For example, susceptibility to the anti-viral agent can be measured by comparing the luciferase activity in the presence and absence of the anti-viral agent. Susceptible viruses would produce low levels of luciferase activity in the presence of anti-viral agents, whereas viruses with reduced susceptibility would produce higher levels of luciferase activity.
In order to determine the relationship between an HIV-1 strain's protease sequence and its susceptibility to treatment with a protease inhibitor, a data set of patient plasma samples was analyzed genotypically as well as phenotypically. The phenotypic assay was conducted using the PHENOSENSE™ (Virologic, South San Francisco, Calif.) HIV assay (Petropoulos et al., 2000, Antimicrob. Agents Chemother. 44:920-928; U.S. Pat. Nos. 5,837,464 and 6,242,187). Plasma samples were collected from HIV-1-infected patients. […]

Row | SMILES | Fold change (FC) in IC50, 10th percentile | Fold change (FC) in IC50, 90th percentile | Fold change (FC) in IC50, mean | Fold change (FC) in IC50, median
1 | CC(C)CN(C[C@@H](O)[C@H](Cc1ccccc1)NC(=O)O[C@H]1CCOC1)S(=O)(=O)c1ccc(N)cc1 [APV, amprenavir] | 0.35 | 1.32 | 0.69 | 0.71
2 | CC(C)(C)NC(=O)[C@@H]1CN(Cc2cccnc2)CCN1C[C@@H](O)C[C@@H](Cc1ccccc1)C(=O)N[C@H]1c2ccccc2C[C@H]1O [IDV, indinavir] | 0.44 | 1.35 | 0.78 | 0.78
3 | Cc1cccc(C)c1OCC(=O)N[C@@H](Cc1ccccc1)[C@@H](O)C[C@H](Cc1ccccc1)NC(=O)[C@H](C(C)C)N1CCCNC1=O [LPV, lopinavir] | 0.40 | 1.15 | 0.68 | 0.69
4 | Cc1c(O)cccc1C(=O)N[C@@H](CSc1ccccc1)[C@H](O)CN1C[C@H]2CCCC[C@H]2C[C@H]1C(=O)NC(C)(C)C [NFV, nelfinavir] | 0.54 | 2.09 | 1.05 | 1.05
5 | CC(C)c1nc(CN(C)C(=O)N[C@H](C(=O)N[C@@H](Cc2ccccc2)C[C@H](O)[C@H](Cc2ccccc2)NC(=O)OCc2cncs2)C(C)C)cs1 [RTV, ritonavir] | 0.45 | 1.55 | 0.82 | 0.81
6 | CC(C)(C)NC(=O)[C@@H]1C[C@@H]2CCCC[C@@H]2CN1C[C@@H](O)[C@H](Cc1ccccc1)NC(=O)[C@H](CC(N)=O)NC(=O)c1ccc2ccccc2n1 [SQV, saquinavir] | 0.44 | 1.12 | 0.70 | 0.71
